Assay results from patent US20040141944A1, “Inhibition of xenoreactive antibodies” (priority 1998, published 2004).
Converted amounts (≈) assume the structure as drawn. Like-named read-outs stand apart in the source and are kept apart here. Each block holds one compound with its values, some of them ahead of it.

Legend:
[1] = tested on: anti-Gal antibodies in baboon serum; test: competition ELISA, inhibition of xenoreactive antibody activity (IC50); type: binding; settings: for IC50 (FIG. 24): mass per volume of polymer, new pipette tip for each addition
Method: Principle of the assay: A competition ELISA was set up in such a way that Gal-molecules linked to human serum albumin and immobilized onto a microtiter plate and Gal-molecules linked to PEG compete for anti-Gal antibodies in baboon serum. The antibodies binding to the Gal-HSA were visualized using secondary antibodies to these antibodies with appropriate color development agents. The color in the case in which no Gal-PEG was added was defined as 100%. The IC50 was defined, for FIG. 3, as the concentration of Gal-PEG needed to inhibit 50% of the color development when trying to detect antibodies immobilized onto the Gal-HSA plate. For FIG. 24, the IC50 is defined in terms of mass per volume, e.g. mg/mL, of polymer.
Briefly, a 96 well microtiter was coated with 100 ul/well of a 30 ug/mL solution of αGal(1,3)Gal β 1-4 GlcNAc-human serum albumin (Gal-HSA) and incubated for 90 minutes at room temperature. After incubation with Gal-HSA, the plate was blocked with 1% HSA in PBS for 60 minutes.
While the microtiter plate was coated and blocked, samples were prepared as follows: Fifteen different dilution solutions were prepared for 1 plate. The first dilution solution was 1% HSA in PBS. […] were obtained by preparing a 2.5 mL stock solution of 10 mM αGal(1,3)Gal β 1-4 GlcNAc in 1% HSA/PBS and then serially diluting 1/10 three times. Dilution solutions 6-15 were obtained by preparing a 2.5 mL stock solution of the first concentration of modified PEG and then serially diluting 1/10 nine times in 1% HSA in PBS.
The plate was incubated for 90 minutes at 4° C. The plate was washed five times with PBS containing 0.5% Tween 20 and blot dried.
When assaying for xenoreactive IgM, 100 ul/well of Goat anti-human IgM-biotin antibody, diluted 1/4000 in 1% HSA/PBS, was added.
When assaying for xenoreactive IgG, 100 ul/well of Goat anti-human IgG-biotin antibody, diluted 1/4000 in 1% HSA/PBS, was added.
The biotinylated secondary antibody was incubated for one hour at 4° C. and afterwards the plate was washed five times with PBS containing 0.5% Tween 20 and blot dried. Hereafter, 100 ul/well streptavidin-alkaline phosphatase conjugate was added at a dilution of 1/4000 in 1% HSA/PBS and incubated for 30 minutes at room temperature. The microtiter plate was washed five times with PBS containing 0.5% Tween 20 and blot dried. 150 ul developer per well was added and the plate incubated for 30 minutes at room temperature. The color development was stopped by addition of 40 ul/well of 3 M NaOH. The plate was read in a plate reader at wavelength of 405 nm.
The IC50 data was calculated from the percent inhibition from the dilution of baboon control in 1% HSA/PBS which gave this highest point within the linear range.
% Inhibition=(([OD of BC in HSA]−[OD of BC in αGal(1,3)Gal β 1-4 GlcNAc or PEG-(αGal(1,3)Gal β 1-4 GlcNAc)x])/OD of BC in HSA)*100

[2] = tested on: IgM and IgG antibodies directed against the α-gal epitope (XNA); test: 810S vs immunoapheresis: circulating α-gal antibodies (serum ELISA); type: in vivo, baboon
Method: (§1) FIG. 26 is a graph of IgM XNA Levels: 810S vs IP-treated baboons. Baboons were either treated with 810S (50 mg/kg) every 3 days for a total of 6 treatments, or underwent a total of 6 immunoapheresis treatments using α-gal columns every 3 days. Serum from each baboon was analyzed by ELISA for IgM antibodies directed against the α-gal epitope. The percent IgM XNAs remaining were calculated using baseline values from each animal as 100%.
as §1, with “FIG. 27” for “FIG. 26”, “of IgG” for “of IgM”, “for IgG” for “for IgM”, “the a -gal” for “the α-gal”
(§2) A total of 6 baboons were used. Three baboons (designated 51-98, 48-98 and 47-98) underwent immunoapheresis (IP) using α-gal columns, with plasma from 3 blood volumes being passed over the columns every 3 days for a total of 6 treatments. Three other baboons (designated 46-98, 52-98, 50-98) received IV infusions of 810S at 50 mg/kg every 3 days for a total of 6 treatments. No immunosuppression or exposure to pig organs was included in the protocol.
(§3) In both groups, serum samples and blood were collected to measure α-gal antibody levels and ASCs during the treatment period and during a follow-up period out to approximately 150-180 days.

[3] = tested on: α-gal antibody secreting cells (ASCs); test: 810S vs immunoapheresis: peripheral α-gal antibody secreting cells (ELISPOT); type: in vivo, baboon
Method: (§4) FIG. 34 compares the IgG response between IP and TPC (810) treated baboons. Baboons were either treated with 810S (50 mg/kg) every 3 days for a total of 6 treatments, or underwent a total of 6 immunoapheresis treatments using α-gal columns every 3 days. Peripheral blood mononuclear cells were collected and analyzed for the number of cells secreting IgG antibodies directed against α-gal using an ELISPOT analysis. The fold-change in antibody secreting cells (ASCs) was calculated by normalizing to baseline values. Values are represented as the mean from 3 baboons per group.
as §4, with “35” for “34”, “IgM” for “IgG”
as §2, §3

total IgM and total IgG = test: 810S-treated baboons: total IgM and total IgG by ELISA; type: in vivo, baboon; settings: all 3 animals, throughout the experiment
Method: FIG. 28 is a graph of baboon 46-98 antibody response to 810S. Baboon 46-98 was treated with 810S (50 mg/kg) every 3 days for a total of 6 treatments. Serum was analyzed for IgM and IgG antibodies directed against the α-gal epitope (XIgM or XIgG), as well as for total IgM (TotIgM) or total IgG (TotIgG) by ELISA. The percent antibody remaining was calculated using baseline values as 100%.
as §2

[4] = presence of 810S in baboon serum at day 30 (competition with human XNA binding to GAL-HSA); type: in vivo; settings: day 30 serum
Source text: To investigate whether 810S was still in baboon serum by day 30, serum was mixed with human serum and analyzed by ELISA for competition with human XNA binding to GAL-HSA.

[5] = 50 mg/kg IV every 3 days, after the final (6th) treatment

Compound: CC(=O)N[C@H]1C(O)O[C@H](CO)[C@@H](O[C@@H]2O[C@H](CO)[C@H](O)[C@H](O[C@H]3O[C@H](CO)[C@H](O)[C@H](O)[C@H]3O)[C@H]2O)[C@@H]1O (stereo partly drawn) [free sugar, αGal(1,3)Gal β 1-4 GlcNAc, reference compound]
IC50 [1]: 50000 µg/mL (≈ 91.7 mM)

IC50 (FIG. 24) [1]: 100 µg/mL
Compound: (αGal(1,3)Gal β 1-4 GlcNAc)8, PEG [Example 810E]

IC50 [1]: 500 µg/mL
Compound: (αGal(1,3)Gal β 1-4 GlcNAc)8-PEG [Example 410L]
times more effective per coupled sugar than the free sugar ([1]; from IC50 of 410L versus free sugar): 100 times

IC50 ([1]; approximate, 810 S and its diafiltration fractions (Example 30)): 0.005 µg/mL
IC50 (FIG. 24) [1]: 0.5 µg/mL
Compound: (αGal(1,3)Gal β 1-4 GlcNAc)8-PEG [Example 810S]
IgG XNA levels, % of baseline values [2, 5]: 1-9%
IgM XNA levels, % of baseline values [2, 5]: 1-3%
circulating IgG and IgM XNA levels, % of initial levels ([2]; 50 mg/kg IV, after the 1st treatment, all 3 baboons): 1-13%
IgG XNA levels, % of baseline values ([2]; by day 30): 20-33%
IgM XNA levels, % of baseline values ([2]; by day 30): 8-18%
IgG XNA levels, % of baseline values ([2]; day 184, 2 810S-treated baboons): 30-38%
IgM XNA levels, % of baseline levels ([2]; day 184, 3rd baboon): 60%
IgG XNA levels ([2]; day 184, one (3rd) baboon): returned to baseline
IgM XNA levels, % of baseline values ([2]; day 184, the other 2 baboons): 24-39%
IgM and IgG ASC levels, % of initial levels ([3]; 1 week after day 30): about 62%
IgM and IgG ASCs, % of starting levels ([3]; after the sixth treatment): 3-6%
IgM and IgG ASCs, % initial levels ([3]; by the fourth treatment): about 10%
IgM and IgG ASC levels, % of initial levels ([3]; by the second treatment with 810S): 20-40%
IgM and IgG ASC levels, % of initial levels ([3]; day 30, 2 weeks after 810S treatment was terminated): about 38%
total IgM and IgG levels (total IgM and total IgG): remained relatively constant
810S still in baboon serum [4]: not still in circulation
